Legend:
[1] = favoring the natural (+)-isomer; cited from earlier work
[2] = tested on: panel of 60 human cancer cell lines; experiment: NCI in-vitro cytotoxicity screen, whole panel; type: cell-based
L1210 leukemia = conditions: carzelesin 400 μg/kg, adozelesin 100 μg/kg; cited from earlier work
melanoma = conditions: phase I clinical trial; cited from earlier work
[3] = mice; therapeutic doses; cited from earlier work

Description for BT-549: (§1) The compounds of this invention were also tested against the panel of 60 human cancer cell lines at the National Cancer Institute, Bethesda, Md. (44). The cytrotoxicity studies were conducted using a 48 hour exposure, and measuring the optical density of sulforhodamide B-derived color.
Description for CCRF-CEM: (§2) The compounds of this invention were also tested against the panel of 60 human cancer cell lines at the National Cancer Institute, Bethesda, Md. […] The cytrotoxicity studies were conducted using a 48 hour exposure, and measuring the optical density of sulforhodamide B-derived color.
Description for HS 578T: as §1
Description for HT29: as §2
Description for K-562: as §2
Description for LOX IMVI: as §1
Description for MOLT-4: as §2
Description for NCI-H23: as §2
Description for OVCAR-8: as §1
Description for SF-268: as §1
Description for SR: as §2
Description for TK-10: as §2

In the case of CPI-In-In, the “difference in cytotoxicity between enantiomers” value [1] is given as “about 250 fold”.

In the case of `COc1cc2cc(C(=O)Nc3cc(O)ccc3CCCl)[nH]c2c(OC)c1OC` [Compound 3, 4-(2-Chloroethyl)-3-(5,6,7-trimethoxyindole-2-carboxamino)phenol], the range of activity ([2]; 48 hour exposure) is reported as “micromolar range”, the “activity against leukemia cells” value ([2]; leukemia cells) is reported as “none of these compounds showed much activity” and the “activity against melanoma cells” value ([2]; melanoma cells) is reported as “active”. For the same molecule, the “activity against solid tumors cells” value ([2]; solid tumors cells) was “strong activity”, the CC50 (CCRF-CEM) was over 100 µM and the CC50 (K-562) was over 100 µM. For the same molecule, the CC50 (MOLT-4) was over 100 µM, the CC50 (SR) was over 100 µM and the CC50 (NCI-H23) was over 100 µM. It also gave a CC50 (NCI-H322M) of over 100 µM, a GI50 (NCI-H322M) of 2.81 µM and a CC50 (HT29) of over 100 µM. For the same molecule, the CC50 (SF-268) was over 100 µM, the CC50 (LOX IMVI) was over 100 µM and the CC50 (OVCAR-8) was over 100 µM. For the same molecule, the CC50 (TK-10) was 23.5 µM, the CC50 (HS 578T) was over 100 µM and the CC50 (BT-549) was over 100 µM.

In the case of `Cc1c[nH]c2c1[C@@]13C[C@@H]1CN(C(=O)c1cc4cc(NC(=O)c5cc6ccccc6o5)ccc4[nH]1)C3=CC2=O` [adozelesin], the ILS (L1210 leukemia) is listed as 90±11%, the survival (L1210 leukemia) is listed as 0/6 and the clinical response (melanoma) is listed as “partial response”. The “delayed lethality / delayed toxicity” value [3] was “devoid of the delayed toxicity problem”.

— patent publication US6660742B2, “Compositions and methods of the use thereof achiral analogues of CC-1065 and the duocarmycins” (priority 2000, dated 2003)
